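Cultured in 96-well plates, cells were exposed to test compound for 48 hours across five concentrations. GI50 = concentration required for 50% inhibition of growth.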 Active and inactive are the calls of the source. Rule as the data show it: active = GI50 up to about 1.1 µM and inactive = higher.
Legend:
Test in all cases: DTP human tumour cell line panel, 48 h
SNB-75 = test system: SNB-75
OVCAR-5 = test system: OVCAR-5
NCI/ADR-RES = test system: NCI/ADR-RES
CCRF-CEM = test system: CCRF-CEM
A498 = test system: A498
NCI-H226 = test system: NCI-H226
UO-31 = test system: UO-31
SK-MEL-5 = test system: SK-MEL-5
NCI-H522 = test system: NCI-H522
MCF7 = test system: MCF7
HOP-92 = test system: HOP-92
CAKI-1 = test system: CAKI-1
HCT-116 = test system: HCT-116
K562 = test system: K562
HT-29 = test system: HT-29
MOLT-4 = test system: MOLT-4
U-251 = test system: U-251
A549 = test system: A549
PC-3 = test system: PC-3
OVCAR-3 = test system: OVCAR-3

Measured: GI50

NCCCN(CCCCN(CCCN)Cc1ccccc1)Cc1ccccc1
inactive: SNB-75 4.57 µM | OVCAR-5 17.5 µM | NCI/ADR-RES > 100 µM | CCRF-CEM 30.3 µM | A498 > 100 µM | NCI-H226 21.2 µM | UO-31 26.1 µM | SK-MEL-5 57.8 µM | NCI-H522 10.9 µM | MCF7 25.1 µM | HOP-92 > 10 µM | CAKI-1 15.8 µM | HCT-116 30.8 µM | K562 54.2 µM | HT-29 17.3 µM | MOLT-4 20.1 µM | U-251 42.3 µM | A549 74.5 µM

CC(C(O)Cc1ccccc1)N(C)/N=N/c1ccc([N+](=O)[O-])cc1 (stereo not drawn)
inactive: SNB-75 23.1 µM | OVCAR-5 25.5 µM | NCI/ADR-RES 18.8 µM | CCRF-CEM 29.6 µM | NCI-H226 19.5 µM | PC-3 18.3 µM | UO-31 15.2 µM | SK-MEL-5 18.6 µM | MCF7 24 µM | OVCAR-3 14.8 µM | CAKI-1 21.9 µM | HCT-116 16.4 µM | K562 27.2 µM | HT-29 18.6 µM | MOLT-4 18.2 µM | U-251 17.7 µM | A549 23.1 µM

COc1ccccc1NC(=S)Nc1cc(C)ccn1
inactive: SNB-75 > 100 µM | OVCAR-5 > 100 µM | NCI/ADR-RES > 100 µM | CCRF-CEM > 100 µM | A498 > 100 µM | NCI-H226 > 100 µM | PC-3 > 100 µM | UO-31 > 100 µM | SK-MEL-5 > 100 µM | NCI-H522 > 100 µM | MCF7 > 100 µM | OVCAR-3 > 100 µM | CAKI-1 > 100 µM | HCT-116 > 100 µM | K562 > 100 µM | HT-29 > 100 µM | MOLT-4 > 100 µM | U-251 > 100 µM | A549 > 100 µM

Oc1c(Cl)cc2cc1-c1cc(cc(Cl)c1O)CCc1c(cc(Cl)c(O)c1Cl)-c1cc(Cl)c(c(Cl)c1O)/C=C\2
inactive: SNB-75 9.02 µM | OVCAR-5 10.8 µM | NCI/ADR-RES 13.7 µM | CCRF-CEM 3.56 µM | A498 14.3 µM | NCI-H226 11.5 µM | PC-3 8.3 µM | SK-MEL-5 8.17 µM | OVCAR-3 7.4 µM | HOP-92 16.8 µM | HCT-116 8.11 µM | K562 > 50 µM | HT-29 11.4 µM | MOLT-4 30.2 µM | U-251 11.6 µM | A549 10.6 µM

Nc1ncc2ncn(C3CCC(CO)O3)c2n1 (stereo not drawn)
inactive: SNB-75 > 100 µM | OVCAR-5 > 100 µM | NCI/ADR-RES > 100 µM | CCRF-CEM > 100 µM | A498 88.7 µM | NCI-H226 > 100 µM | PC-3 > 100 µM | UO-31 > 100 µM | SK-MEL-5 > 100 µM | NCI-H522 > 100 µM | MCF7 > 100 µM | OVCAR-3 > 100 µM | CAKI-1 > 100 µM | HCT-116 > 100 µM | K562 > 100 µM | HT-29 > 100 µM | MOLT-4 > 100 µM | U-251 > 100 µM | A549 > 100 µM

CN(C)c1ccc(/C=c2/c3ccccc3n3c2cc(/C=C/c2ccccc2)[n+]3C)cc1
active: SNB-75 0.033 µM | OVCAR-5 0.502 µM | CCRF-CEM 0.0206 µM | A498 0.266 µM | NCI-H226 0.11 µM | PC-3 0.0933 µM | UO-31 0.344 µM | SK-MEL-5 0.144 µM | NCI-H522 0.108 µM | MCF7 0.147 µM | OVCAR-3 0.141 µM | HOP-92 0.0358 µM | HCT-116 0.0824 µM | K562 0.0951 µM | HT-29 0.142 µM | MOLT-4 0.0743 µM | U-251 0.0399 µM | A549 0.0512 µM
inactive: CAKI-1 1.28 µM

Nc1ccc(Nc2cc(O)nc(O)n2)cc1
inactive: NCI/ADR-RES > 100 µM | CCRF-CEM > 100 µM | A498 > 100 µM | NCI-H226 > 100 µM | PC-3 > 100 µM | SK-MEL-5 > 100 µM | NCI-H522 > 100 µM | MCF7 > 100 µM | OVCAR-3 > 100 µM | CAKI-1 > 100 µM | HCT-116 > 100 µM | K562 > 100 µM | HT-29 > 100 µM | MOLT-4 > 100 µM | U-251 > 100 µM | A549 > 100 µM

CC(=O)c1c2c(cc3c1CCC3)CCC2
inactive: SNB-75 > 100 µM | OVCAR-5 > 100 µM | NCI/ADR-RES > 100 µM | CCRF-CEM 40.7 µM | A498 36.5 µM | NCI-H226 82 µM | PC-3 55.3 µM | UO-31 54.5 µM | SK-MEL-5 > 100 µM | NCI-H522 > 100 µM | MCF7 > 100 µM | OVCAR-3 > 100 µM | CAKI-1 > 100 µM | HCT-116 70.3 µM | K562 20.7 µM | HT-29 > 100 µM | MOLT-4 20.6 µM | U-251 > 100 µM | A549 > 100 µM

— ChEMBL document CHEMBL1201862, “PubChem BioAssay data set” (2004)
